Assays:
[1] = test system: NF-κB; experiment: Caco-2/THP1-Blue co-culture: NF-κB activity after LPS; format: cell-based, human; conditions: control tests, versus LPS+
Source text: (§1) Samples collected from the SHIME experiment described above were used to evaluate in vitro the effect of the fermented products on intestinal epithelial barrier function and immune markers. These include samples from the proximal and distal colon reactors of three different donors, collected at the end of the control and treatment periods.
THP1-Blue™ (InvivoGen) cells were maintained in Roswell Park Memorial Institute (RPMI) 1640 medium containing glucose and glutamine, supplemented with HEPES, sodium pyruvate and 10% (v/v) H1-FBS. THP1-Blue™ are THP1 human monocytes stably transfected with a reporter construct expressing a secreted alkaline phosphatase (SEAP) gene under the control of a promoter inducible by the transcription factor nuclear factor kappa B (NF-κB). Upon TLR activation (e.g., by lipopolysaccharide (LPS); isolated from Gram-negative bacteria), NF-κB becomes activated and induces the expression and secretion of SEAP. SEAP activity can then be measured in the supernatants by using the QUANTI-Blue reagent (InvivoGen). […]
Briefly, the apical compartment (containing the Caco-2 cells) was filled with sterile-filtered (0.22 μm) colonic SHIME suspensions or with different concentrations of live bacteria. […] Cells were treated for 24 h, after which the TEER was measured (=24 h time point). […]

[2] = test system: IL-1β; experiment: Caco-2/THP1-Blue co-culture: IL-1β secretion after LPS; format: cell-based, human; conditions: control tests, versus LPS+
Source text: as §1
(§2) Briefly, the apical compartment (containing the Caco-2 cells) was filled with sterile-filtered (0.22 μm) colonic SHIME suspensions or with different concentrations of live bacteria. Cells were also treated apically with sodium butyrate (NaB) (Sigma-Aldrich) as positive control. The basolateral compartment (containing the THP1-Blue™ cells) was filled with Caco-2 complete medium. Cells were also exposed to Caco-2 complete medium in both chambers as control. Cells were treated for 24 h, after which the TEER was measured (=24 h time point). After subtracting the TEER of the empty insert, all 24 h values were normalized to its own 0 h value (to account for the differences in initial TEER of the different inserts) and are presented as percentage of initial value. Then, the basolateral supernatant was discarded, and cells were stimulated at the basolateral side with Caco-2 complete medium containing ultrapure LPS (Escherichia coli K12, InvivoGen). […]

[3] = test system: Caco-2/THP1-Blue™ co-cultures; experiment: Caco-2/THP1-Blue co-culture: transepithelial electrical resistance (TEER); format: cell-based, human; conditions: control tests, apical treatment 24 h, versus complete medium
Source text: To mimic the interface between host and gut microbiome, several in vitro models have been developed in the past years which include the use of intestinal epithelial-like cells and immune cells of human origin. The model used herein was a co-culture model of intestinal epithelial-like cells (Caco-2 cells) and human monocytes/macrophages (THP1 cells). (See FIG. 14; see also Possemiers (2013) Satsu (2006).) Caco-2, when seeded on suitable supports, spontaneously differentiate into mature enterocyte-like cells, characterized by polarization, presence of villi, formation of domes, presence of tight junctions and vectorial transport and expression of apical brush-border enzymes (reviewed by Sambuy (2005)). THP1 monocytes, isolated from a human patient with acute leukemia, differentiate into macrophage-like cells upon phorbol 12-myristate 13-acetate (PMA) treatment. […] The ‘tightness’ of these junctions can be measured as transepithelial electrical resistance (TEER), with a high TEER corresponding to a tighter barrier. Upon loss of barrier function, the paracellular transport (in-between cells) of fluids increases, which can be measured as a reduction of the TEER. […] This is possibly due to cytokine-mediated disruption of tight junctions and can be measured as a decrease in TEER. […]

[4] = test system: TNF-α; experiment: Caco-2/THP1-Blue co-culture: TNF-α secretion after LPS; format: cell-based, human; conditions: control tests, versus LPS+
Source text: as §1, §2

[5] = test system: MCP-1; experiment: Caco-2/THP1-Blue co-culture: MCP-1 secretion after LPS; format: cell-based, human; conditions: control tests, versus LPS+
Source text: as §1, §2

[6] = test system: CXCL10; experiment: Caco-2/THP1-Blue co-culture: CXCL10 secretion after LPS; format: cell-based, human; conditions: control tests, versus LPS+
Source text: as §1, §2

[7] = test system: IL-10; experiment: Caco-2/THP1-Blue co-culture: IL-10 secretion after LPS; format: cell-based, human; conditions: control tests, versus LPS+
Source text: as §1, §2

[8] = test system: IL-6; experiment: Caco-2/THP1-Blue co-culture: IL-6 secretion after LPS; format: cell-based, human; conditions: control tests, versus LPS+
Source text: as §1, §2

[9] = test system: IL-8; experiment: Caco-2/THP1-Blue co-culture: IL-8 secretion after LPS; format: cell-based, human; conditions: control tests, versus LPS+
Source text: as §1, §2

[10] = test system: Coprococcus; experiment: i-screen in vitro fermentation: Coprococcus growth; format: cell-based; conditions: second i-screen, relative to untreated control (1.0)
Method: (§3) Samples containing 8 mg/mL (0.8% w/v) of SPS or SOS were diluted by a factor of two to provide samples containing 4 mg/mL (0.4% w/v) of SPS or SOS. The effect of Sample Nos. 1-12 at a concentration of 4 mg/mL on a panel of over twenty-five gut microbiota was assessed after 24 h of fermentation using an in vitro fermentation screening platform (“i-screen”), as described by Fehlbaum (2018). Specifically, a standard fecal microbiota pool derived from 5-6 healthy adults (health based on exclusion criteria) was used that was pre-cultured overnight from a frozen stock. […] A number of sphingan samples and comparative samples—plant extracts (e.g., pectins, pectin oligosaccharides, and carrageenans) and biogums (e.g., xanthan and xanthan oligosaccharides)) were analyzed at a concentration of about 4 mg/mL, which corresponds to a dose of about 4 g/day. […]
(§4) Shifts in microbiota composition were determined by next generation sequencing, which recognizes bacteria at the genus level and in many cases (but not all) at the species level. To have a uniform distribution of samples in the sequencing pool total bacterial load was established by a quantitative Polymerase Chain Reaction (“PCR”) using a universal primer-probe set. […] Next, amplicons were gel-purified, quantified and pooled. […]
(§5) The standard controls were carried out in triplicate. […] The effect was determined relative to an untreated control. […]

[11] = test system: Butyricicoccus; experiment: i-screen in vitro fermentation: Butyricicoccus growth; format: cell-based; conditions: second i-screen, relative to untreated control (1.0)
Method: as §3, §4, §5

[12] = test system: Bifidobacterium; experiment: i-screen in vitro fermentation of fecal microbiota pool: Bifidobacterium growth; format: cell-based; conditions: second i-screen, relative to untreated control (1.0)
Method: as §3, §4, §5

[13] = test system: Clostridium XlVa; experiment: i-screen in vitro fermentation: Clostridium XlVa growth; format: cell-based; conditions: second i-screen, relative to untreated control (1.0)
Method: The effect of Sample Nos. 1-12 at a concentration of 4 mg/mL on a panel of over twenty-five gut microbiota was assessed after 24 h of fermentation using an in vitro fermentation screening platform (“i-screen”), as described by Fehlbaum (2018). Specifically, a standard fecal microbiota pool derived from 5-6 healthy adults (health based on exclusion criteria) was used that was pre-cultured overnight from a frozen stock. This was followed by dilution in microtiter plates in which the samples were added and subsequently anaerobically incubated for 24 h at 37° C. After incubation, culture samples were harvested and processed for further analysis. […] A number of sphingan samples and comparative samples—plant extracts (e.g., pectins, pectin oligosaccharides, and carrageenans) and biogums (e.g., xanthan and xanthan oligosaccharides)) were analyzed at a concentration of about 4 mg/mL, which corresponds to a dose of about 4 g/day.

[14] = test system: Lachnospiraceae unclassified; experiment: i-screen in vitro fermentation: Lachnospiraceae unclassified growth; format: cell-based; conditions: second i-screen, relative to untreated control (1.0)
Method: as §3, §4, §5

[15] = test system: Faecalibacterium; experiment: i-screen in vitro fermentation of fecal microbiota pool: Faecalibacterium growth; format: cell-based; conditions: second i-screen, pool H1, relative to untreated control (1.0)
Method: as §3, §4, §5

[16] = test system: Blautia; experiment: i-screen in vitro fermentation of fecal microbiota pool: Blautia growth; format: cell-based; conditions: second i-screen, pool H1, relative to untreated control (1.0)
Method: as §3, §4, §5

[17] = test system: Phascolarctobacterium; experiment: i-screen in vitro fermentation: Phascolarctobacterium growth; format: cell-based; conditions: second i-screen, relative to untreated control (1.0)
Method: as §3, §4, §5

[18] = test system: Parabacteroides; experiment: i-screen in vitro fermentation of fecal microbiota pool: Parabacteroides growth; format: cell-based; conditions: second i-screen, pool H1, relative to untreated control (1.0)
Method: as §3, §4, §5

Compound	LPS-induced NF-κB transcriptional activity [1]	LPS-induced IL-1β expression [2]	TEER of the Caco-2 monolayer [3]	LPS-induced TNF-α [4]	LPS-induced MCP-1 [5]	LPS-induced CXCL10 [6]	LPS-induced IL-10 secretion [7]	LPS-induced IL-6 secretion [8]	LPS-induced IL-8 [9]	Copro. growth [10]	Butyr. growth [11]	Bifid. growth [12]	ClX1Va growth [13]	Lachn. U. growth [14]	Faecal. growth [15]	Blaut. growth [16]	Phasc. growth [17]	Para. growth [18]
C[C@]12CCC(=O)C=C1CC[C@@H]1[C@@H]2[C@@H](O)C[C@@]2(C)[C@H]1CC[C@]2(O)C(=O)CO [HC, hydrocortisone]	inhibiting	did not reduce	–	–	–	–	–	–	–	–	–	–	–	–	–	–	–	–
CCCC(=O)[O-].[Na+] [NaB, sodium butyrate]	increased	did not reduce	maintain the TEER	selectively inhibited	selectively inhibited	selectively inhibited	selectively increased	selectively increased	selectively inhibited	–	–	–	–	–	–	–	–	–
CC1(C)S[C@@H]2[C@H](NC(=O)[C@H](N)c3ccc(O)cc3)C(=O)N2[C@H]1C(=O)O [CS20, Amoxicillin]	–	–	–	–	–	–	–	–	–	0.04	0.00	0.24	0.03	0.04	0.37	0.23	0.08	12.10

— patent publication US11622974B2, “Prebiotic composition and its use” (CP KELCO U.S., INC., priority 2019, dated 2023)
